Experiments:
Details in all cases: exposure time: 72 h
E13 [1] = patient-derived glioblastoma stem cells of classical subtype; test: surviving fraction (nuclei count normalised to DMSO); higher = more cells surviving (less toxic)
E21 [2] = patient-derived glioblastoma stem cells of mesenchymal subtype; test: as above
E28 [3] = patient-derived glioblastoma stem cells of classical subtype; test: as above
E31 [4] = patient-derived glioblastoma stem cells of proneural subtype; test: as above
E34 [5] = patient-derived glioblastoma stem cells of proneural subtype; test: as above
E57 [6] = patient-derived glioblastoma stem cells of mesenchymal subtype; test: as above
FT3469 [7] = normal neural stem cell line; test: as above
E13 [8] = test: phenotypic distance (Euclidean, principal components) from DMSO controls (arbitrary units); higher = stronger morphological change
E21 [9] = test: as above
E28 [10] = test: as above
E31 [11] = test: as above
E34 [12] = test: as above
E57 [13] = test: as above
FT3469 [14] = test: as above
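For phenotypic distance (Euclidean, principal components) from DMSO controls in this document: cell Painting imaging in 384-well plates, CellProfiler features reduced to at least 20 principal components, Euclidean distance versus same-plate DMSO vehicle wells (0.1% v/v), median over six images per well.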
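For surviving fraction (nuclei count normalised to DMSO) in this document: nuclei counted by high-content imaging of Hoechst-stained cells in laminin-coated 384-well plates, relative to 0.1% DMSO vehicle wells, with staurosporine as cell-death control.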

CCCCCC[C@H]1C(=O)O[C@H](C)[C@H](NC(=O)c2cccc(NC=O)c2O)C(=O)O[C@@H](C)[C@@H]1OC(=O)CC(C)C [Antimycin A]
Details	phenotypic distance	surviving fraction
E13 [1], 4.1 nM	–	0.562
E13 [1], 12.3 nM	–	0.544
E13 [1], 37 nM	–	0.546
E13 [1], 111.1 nM	–	0.571
E13 [1], 333.3 nM	–	0.512
E13 [1], 1000 nM	–	0.538
E13 [1], 3000 nM	–	0.416
E13 [8], 4.1 nM	2.21	–
E13 [8], 12.3 nM	2	–
E13 [8], 37 nM	1.93	–
E13 [8], 111.1 nM	2.18	–
E13 [8], 333.3 nM	2.6	–
E13 [8], 1000 nM	2.46	–
E13 [8], 3000 nM	3.04	–
E21 [2], 4.1 nM	–	0.588
E21 [2], 12.3 nM	–	0.629
E21 [2], 37 nM	–	0.542
E21 [2], 111.1 nM	–	0.55
E21 [2], 333.3 nM	–	0.594
E21 [2], 1000 nM	–	0.585
E21 [2], 3000 nM	–	0.494
E21 [9], 4.1 nM	3.65	–
E21 [9], 12.3 nM	3.44	–
E21 [9], 37 nM	4.09	–
E21 [9], 111.1 nM	3.93	–
E21 [9], 333.3 nM	3.39	–
E21 [9], 1000 nM	3.78	–
E21 [9], 3000 nM	3.71	–
E28 [3], 4.1 nM	–	0.8
E28 [3], 12.3 nM	–	0.561
E28 [3], 37 nM	–	0.625
E28 [3], 111.1 nM	–	0.585
E28 [3], 333.3 nM	–	0.506
E28 [3], 1000 nM	–	0.527
E28 [3], 3000 nM	–	0.521
E28 [10], 4.1 nM	0.765	–
E28 [10], 12.3 nM	1.08	–
E28 [10], 37 nM	1.34	–
E28 [10], 111.1 nM	1.41	–
E28 [10], 333.3 nM	1.38	–
E28 [10], 1000 nM	1.86	–
E28 [10], 3000 nM	1.87	–
E31 [4], 4.1 nM	–	0.793
E31 [4], 12.3 nM	–	0.864
E31 [4], 37 nM	–	0.779
E31 [4], 111.1 nM	–	0.683
E31 [4], 333.3 nM	–	0.721
E31 [4], 1000 nM	–	0.599
E31 [4], 3000 nM	–	0.661
E31 [11], 4.1 nM	1.51	–
E31 [11], 12.3 nM	1.62	–
E31 [11], 37 nM	1.68	–
E31 [11], 111.1 nM	1.91	–
E31 [11], 333.3 nM	2	–
E31 [11], 1000 nM	1.59	–
E31 [11], 3000 nM	1.73	–
E34 [5], 4.1 nM	–	0.771
E34 [5], 12.3 nM	–	0.666
E34 [5], 37 nM	–	0.745
E34 [5], 111.1 nM	–	0.619
E34 [5], 333.3 nM	–	0.717
E34 [5], 1000 nM	–	0.682
E34 [5], 3000 nM	–	0.652
E34 [12], 4.1 nM	1.81	–
E34 [12], 12.3 nM	2.11	–
E34 [12], 37 nM	1.7	–
E34 [12], 111.1 nM	2.19	–
E34 [12], 333.3 nM	2.19	–
E34 [12], 1000 nM	2.08	–
E34 [12], 3000 nM	1.39	–
E57 [6], 4.1 nM	–	0.694
E57 [6], 12.3 nM	–	0.642
E57 [6], 37 nM	–	0.581
E57 [6], 111.1 nM	–	0.515
E57 [6], 333.3 nM	–	0.61
E57 [6], 1000 nM	–	0.513
E57 [6], 3000 nM	–	0.466
E57 [13], 4.1 nM	2.07	–
E57 [13], 12.3 nM	3.56	–
E57 [13], 37 nM	4.06	–
E57 [13], 111.1 nM	4.75	–
E57 [13], 333.3 nM	4.39	–
E57 [13], 1000 nM	4.71	–
E57 [13], 3000 nM	5.22	–
FT3469 [7], 4.1 nM	–	0.95
FT3469 [7], 12.3 nM	–	0.895
FT3469 [7], 37 nM	–	0.872
FT3469 [7], 111.1 nM	–	0.823
FT3469 [7], 333.3 nM	–	0.719
FT3469 [7], 1000 nM	–	0.929
FT3469 [7], 3000 nM	–	0.659
FT3469 [14], 4.1 nM	0.791	–
FT3469 [14], 12.3 nM	1.47	–
FT3469 [14], 37 nM	1.52	–
FT3469 [14], 111.1 nM	1.43	–
FT3469 [14], 333.3 nM	1.68	–
FT3469 [14], 1000 nM	1.44	–
FT3469 [14], 3000 nM	1.34	–

COC(=O)Nc1nc2cc(C(=O)c3ccc(F)cc3)ccc2[nH]1 [Flubendazol]
Details	phenotypic distance	surviving fraction
E13 [1], 4.1 nM	–	0.992
E13 [1], 12.3 nM	–	1.12
E13 [1], 37 nM	–	1.11
E13 [1], 111.1 nM	–	0.943
E13 [1], 333.3 nM	–	0.471
E13 [1], 1000 nM	–	0.261
E13 [1], 3000 nM	–	0.234
E13 [8], 4.1 nM	0.372	–
E13 [8], 12.3 nM	0.737	–
E13 [8], 37 nM	0.86	–
E13 [8], 111.1 nM	1.59	–
E13 [8], 333.3 nM	3.72	–
E13 [8], 1000 nM	6.11	–
E13 [8], 3000 nM	6.68	–
E21 [2], 4.1 nM	–	1.09
E21 [2], 12.3 nM	–	0.929
E21 [2], 37 nM	–	0.954
E21 [2], 111.1 nM	–	0.885
E21 [2], 333.3 nM	–	0.777
E21 [2], 1000 nM	–	0.161
E21 [2], 3000 nM	–	0.137
E21 [9], 4.1 nM	0.658	–
E21 [9], 12.3 nM	1.03	–
E21 [9], 37 nM	0.833	–
E21 [9], 111.1 nM	1.63	–
E21 [9], 333.3 nM	2.94	–
E21 [9], 1000 nM	7.4	–
E21 [9], 3000 nM	7.27	–
E28 [3], 4.1 nM	–	1.07
E28 [3], 12.3 nM	–	1.09
E28 [3], 37 nM	–	1.02
E28 [3], 111.1 nM	–	1.02
E28 [3], 333.3 nM	–	0.67
E28 [3], 1000 nM	–	0.361
E28 [3], 3000 nM	–	0.234
E28 [10], 4.1 nM	0.523	–
E28 [10], 12.3 nM	0.55	–
E28 [10], 37 nM	0.574	–
E28 [10], 111.1 nM	1.08	–
E28 [10], 333.3 nM	1.98	–
E28 [10], 1000 nM	3.45	–
E28 [10], 3000 nM	3.81	–
E31 [4], 4.1 nM	–	0.887
E31 [4], 12.3 nM	–	0.95
E31 [4], 37 nM	–	0.807
E31 [4], 111.1 nM	–	0.615
E31 [4], 333.3 nM	–	0.329
E31 [4], 1000 nM	–	0.118
E31 [4], 3000 nM	–	0.0708
E31 [11], 4.1 nM	0.507	–
E31 [11], 12.3 nM	0.548	–
E31 [11], 37 nM	0.79	–
E31 [11], 111.1 nM	1.36	–
E31 [11], 333.3 nM	3.16	–
E31 [11], 1000 nM	5.22	–
E31 [11], 3000 nM	7.77	–
E34 [5], 4.1 nM	–	1.14
E34 [5], 12.3 nM	–	0.942
E34 [5], 37 nM	–	0.985
E34 [5], 111.1 nM	–	0.904
E34 [5], 333.3 nM	–	0.661
E34 [5], 1000 nM	–	0.473
E34 [5], 3000 nM	–	0.324
E34 [12], 4.1 nM	0.541	–
E34 [12], 12.3 nM	0.863	–
E34 [12], 37 nM	0.46	–
E34 [12], 111.1 nM	1.21	–
E34 [12], 333.3 nM	1.98	–
E34 [12], 1000 nM	3.35	–
E34 [12], 3000 nM	4.79	–
E57 [6], 4.1 nM	–	0.998
E57 [6], 12.3 nM	–	0.941
E57 [6], 37 nM	–	1.06
E57 [6], 111.1 nM	–	0.996
E57 [6], 333.3 nM	–	0.739
E57 [6], 1000 nM	–	0.134
E57 [6], 3000 nM	–	0.0682
E57 [13], 4.1 nM	0.67	–
E57 [13], 12.3 nM	0.423	–
E57 [13], 37 nM	0.428	–
E57 [13], 111.1 nM	1.31	–
E57 [13], 333.3 nM	2.68	–
E57 [13], 1000 nM	5.07	–
E57 [13], 3000 nM	4.95	–
FT3469 [7], 4.1 nM	–	1.16
FT3469 [7], 12.3 nM	–	0.827
FT3469 [7], 37 nM	–	0.997
FT3469 [7], 111.1 nM	–	0.747
FT3469 [7], 333.3 nM	–	0.644
FT3469 [7], 1000 nM	–	0.524
FT3469 [7], 3000 nM	–	0.564
FT3469 [14], 4.1 nM	0.499	–
FT3469 [14], 12.3 nM	0.843	–
FT3469 [14], 37 nM	0.655	–
FT3469 [14], 111.1 nM	0.943	–
FT3469 [14], 333.3 nM	2.08	–
FT3469 [14], 1000 nM	3.42	–
FT3469 [14], 3000 nM	3.26	–

From the supplement of paper PMC13207355
